Laboratory results from publication PMC6689975, “Novel Cell Wall Antifungals Reveal a Special Synergistic Activity in pbr1 Mutants Resistant to the Glucan Synthesis Antifungals Papulacandins and Echinocandins” (Frontiers in Microbiology, 2019).

What follows are compounds tested on C. albicans wild-type (assay: microbe, parasite or virus in culture). Settings: Candida albicans; YES medium, C. albicans strain f.
Parameters: species or system whole yeast cells; micro-culture broth dilution MIC in YES at 30 C, turbidity, complete growth inhibition
Procedure: (§1) Standard YEPD (Yeast Extract, Peptone, Dextrose) ([Sherman, 1990]), YEPD+S (YEPD with 1.2M sorbitol), YES (Yeast Extract, Dextrose and Supplements of Adenine, Histidine, Leucine, Uracil and Lysine) ([Alfa et al., 1993]) and YES+S (YES with 1.2 M sorbitol) ([Ribas et al., 1991]; [Ishiguro et al., 1997]), media were used for determination of MIC values of the tested compounds. A stock solution of 10 mg/ml of each tested compounds was prepared in DMSO and serial dilutions in DMSO were prepared. The final concentration of DMSO was 2% in the YEPD medium. […] The serial dilutions of compounds were dispensed into test tubes with 1 ml of YEPD or YEPD+S to make final concentrations of 200, 100, 50, 25, 12.5, 6.26, 3.125, 1.6, 0.8 and 0.4 μg/ml. The tested yeast strains were previously grown in YEPD, YEPD+S, YES or YES+S agar plates at 30°C for 48 h. Micro-culture assays of large numbers of samples were analyzed as described) ([Martins et al., 2011]). Essentially early log-phase cells were grown in YEPD, YEPD+S, YES or YES+S (1.2 M sorbitol) medium at 30°C, and diluted to cell density of 4 X 10^6 cells/ml in YEPD, YEPD+S, YES or YES+S medium and aliquots of 100 μl were dispensed into each small test tube (3 ml test tube size). Then, another 100 μl of YEPD, YEPD+S, YES or YES+S with the corresponding dilution of each compound at 2X concentration (4% DMSO) was added. The final volume was 200 μl, with the cells diluted to of 2 X 10^6 cells/ml and each compound diluted to 1X final concentration, containing increasing concentrations of antifungal (0, 1, 2, 5, 10, 20, 50, 100 and 200 μg/ml) or an equivalent volume of solvent (2% DMSO). The cells were grown at 30°C in an orbital roller and turbidity was analyzed after 24 and 48 h of incubation. The MIC was determined as the minimal concentration of tested compound that produced complete cell growth inhibition and kept the medium clear. The MIC values were calculated from at least three independent experiments. Next, the first generation of isochromanones (1E-16E) was also screened in YES medium (Table 5) and exerted a weaker antifungal potency than in YEPD medium and also than the second family of isochromanones in YES medium (17E-30E) (Table 6). The strains are partly different from the previously mentioned ones (Tables 5, 6) analyzing two wild type C. albicans strains because they behaved similarly in YEPD. It is remarkable that there was no effect against either the C. albicans, the S. cerevisiae, or the S. pombe wild-type strains, except with 30E.

Compound | MIC [µg/mL]
Cc1ccc(/C=C2/C(=O)OCc3ccccc32)cc1 [19E] | > 200
COc1ccc(/C=C2/C(=O)OCc3ccccc32)cc1 [21E] | > 200
O=C1OCc2ccccc2/C1=C\c1ccc2c(c1)OCO2 [27E] | > 200

Same assay, conditions: Candida albicans; YES medium, C. albicans strain g

Compound | MIC [µg/mL]
Cc1ccc(/C=C2/C(=O)OCc3ccccc32)cc1 [19E] | > 200
COc1ccc(/C=C2/C(=O)OCc3ccccc32)cc1 [21E] | > 200
O=C1OCc2ccccc2/C1=C\c1ccc2c(c1)OCO2 [27E] | > 200

What follows are compounds tested on T1, S. cerevisiae wild-type CVX12-3A (assay: microbe, parasite or virus in culture). Settings: Saccharomyces cerevisiae; YES medium.
T1 construct: CVX12-3A
Parameters: species or system whole yeast cells; micro-culture broth dilution MIC in YES at 30 C, turbidity, complete growth inhibition
Procedure: as §1

Compound | MIC [µg/mL]
Cc1ccc(/C=C2/C(=O)OCc3ccccc32)cc1 [19E] | > 200
COc1ccc(/C=C2/C(=O)OCc3ccccc32)cc1 [21E] | > 200
O=C1OCc2ccccc2/C1=C\c1ccc2c(c1)OCO2 [27E] | > 200

These compounds were tested on T2, S. pombe wild-type 972 h- (assay: microbe, parasite or virus in culture). Settings: Schizosaccharomyces pombe; YES medium.
T2 construct: 972 h-
Parameters: species or system whole yeast cells; micro-culture broth dilution MIC in YES at 30 C, turbidity, complete growth inhibition
Procedure: as §1

Compound | MIC [µg/mL]
Cc1ccc(/C=C2/C(=O)OCc3ccccc32)cc1 [19E] | > 200
COc1ccc(/C=C2/C(=O)OCc3ccccc32)cc1 [21E] | > 200
O=C1OCc2ccccc2/C1=C\c1ccc2c(c1)OCO2 [27E] | > 200

These compounds were tested on T3, Saccharomyces cerevisiae S. c.^d (wild-type CVX12-3A) (assay: microbe, parasite or virus in culture). Settings: 48 h, YES + 1.2 M sorbitol.
T3 construct: CVX12-3A
Parameters: species or system yeast; micro tube dilution MIC in YES (± 1.2 M sorbitol), complete growth inhibition by turbidity
Procedure: as §1, with “experiments.” for “experiments. Next, the first generation of isochromanones (1E-16E) was also screened in YES medium (Table 5) and exerted a weaker antifungal potency than in YEPD medium and also than the second family of isochromanones in YES medium (17E-30E) (Table 6). The strains are partly different from the previously mentioned ones (Tables 5, 6) analyzing two wild type C. albicans strains because they behaved similarly in YEPD. It is remarkable that there was no effect against either the C. albicans, the S. cerevisiae, or the S. pombe wild-type strains, except with 30E.”

Compound | MIC [µg/mL]
Cc1ccc(/C=C2/C(=O)OCc3ccccc32)cc1 [19E] | > 200
COc1ccc(/C=C2/C(=O)OCc3ccccc32)cc1 [21E] | > 200
O=C1OCc2ccccc2/C1=C\c1ccc2c(c1)OCO2 [27E] | > 200

These compounds were tested on Candida albicans C. a.^f (Tables 5, 6) (assay: microbe, parasite or virus in culture). Settings: 48 h, YES + 1.2 M sorbitol.
Parameters: species or system yeast; micro tube dilution MIC in YES (± 1.2 M sorbitol), complete growth inhibition by turbidity
Procedure: as §1, with “experiments.” for “experiments. Next, the first generation of isochromanones (1E-16E) was also screened in YES medium (Table 5) and exerted a weaker antifungal potency than in YEPD medium and also than the second family of isochromanones in YES medium (17E-30E) (Table 6). The strains are partly different from the previously mentioned ones (Tables 5, 6) analyzing two wild type C. albicans strains because they behaved similarly in YEPD. It is remarkable that there was no effect against either the C. albicans, the S. cerevisiae, or the S. pombe wild-type strains, except with 30E.”

Compound | MIC [µg/mL]
Cc1ccc(/C=C2/C(=O)OCc3ccccc32)cc1 [19E] | > 200
COc1ccc(/C=C2/C(=O)OCc3ccccc32)cc1 [21E] | > 200
O=C1OCc2ccccc2/C1=C\c1ccc2c(c1)OCO2 [27E] | > 200

Each compound was assayed on Candida albicans C. a.^g (Table 6) (assay: microbe, parasite or virus in culture). Settings: 48 h, YES + 1.2 M sorbitol.
Parameters: species or system yeast; micro tube dilution MIC in YES (± 1.2 M sorbitol), complete growth inhibition by turbidity
Procedure: as §1, with “experiments.” for “experiments. Next, the first generation of isochromanones (1E-16E) was also screened in YES medium (Table 5) and exerted a weaker antifungal potency than in YEPD medium and also than the second family of isochromanones in YES medium (17E-30E) (Table 6). The strains are partly different from the previously mentioned ones (Tables 5, 6) analyzing two wild type C. albicans strains because they behaved similarly in YEPD. It is remarkable that there was no effect against either the C. albicans, the S. cerevisiae, or the S. pombe wild-type strains, except with 30E.”

Compound | MIC [µg/mL]
Cc1ccc(/C=C2/C(=O)OCc3ccccc32)cc1 [19E] | > 200
COc1ccc(/C=C2/C(=O)OCc3ccccc32)cc1 [21E] | > 200
O=C1OCc2ccccc2/C1=C\c1ccc2c(c1)OCO2 [27E] | > 200

Each compound was assayed on T4, Schizosaccharomyces pombe S. p.^a (wild-type 972 h-) (assay: microbe, parasite or virus in culture). Settings: 48 h, YES + 1.2 M sorbitol.
T4 construct: 972 h-
Parameters: species or system yeast; micro tube dilution MIC in YES (± 1.2 M sorbitol), complete growth inhibition by turbidity
Procedure: as §1, with “experiments.” for “experiments. Next, the first generation of isochromanones (1E-16E) was also screened in YES medium (Table 5) and exerted a weaker antifungal potency than in YEPD medium and also than the second family of isochromanones in YES medium (17E-30E) (Table 6). The strains are partly different from the previously mentioned ones (Tables 5, 6) analyzing two wild type C. albicans strains because they behaved similarly in YEPD. It is remarkable that there was no effect against either the C. albicans, the S. cerevisiae, or the S. pombe wild-type strains, except with 30E.”

Compound | MIC [µg/mL]
Cc1ccc(/C=C2/C(=O)OCc3ccccc32)cc1 [19E] | > 200
COc1ccc(/C=C2/C(=O)OCc3ccccc32)cc1 [21E] | > 200
O=C1OCc2ccccc2/C1=C\c1ccc2c(c1)OCO2 [27E] | > 200
